One block for each compound: values may come before it.
Experiments:
[1] = Inhibition of deterioration (browning) of L-ascorbic acid in the presence of metal ion; format: physicochemical; details: 50° C., sealed vial
Experimental: L-Ascorbic acid deteriorates rapidly by the oxidative degradation in the presence of iron and copper ions and causes browning. The effects of α-maltosyl α,α-trehalose on the phenomenon were investigated as follows. Five kinds of aqueous solutions, having respective compositions described in Table 8, were prepared. Aqueous solutions of L-ascorbic acid alone or L-ascorbic acid and metal ion compounds were used as controls. The test solutions were prepared by adding α-maltosyl α,α-trehalose to the control solutions. Ten milliliters of each of these test and control solutions were placed in different 20 ml-vials and sealed. The vials were preserved at 50° C. […] After the preservation, the degree of coloring of each solution was measured. In the case of the control solutions containing L-ascorbic acid alone, the degrees of coloring were measured at the preservation periods of 40 hours and 96 hours. The absorbance at 420 nm (within the visible light range) of each sample was measured for the degree of coloring.

[2] = Hygroscopicity (deliquescence) test at relative humidity 52.8%; format: physicochemical
Experimental: In order to compare the hygroscopicity (deliquescent property) of an associated complex of α-maltosyl α,α-trehalose and calcium chloride with that of a control, calcium chloride which is known to have a high deliquescent property, the following hygroscopicity test was carried out. The crystalline associated complexes of α-maltosyl α,α-trehalose and calcium chloride, prepared according to the method in Experiment 2-1 and calcium chloride dehydrate, were used as test samples. The moisture content (weight of moisture per one gram of the sample) of each sample was measured by conventional drying loss method. […] The amount of moisture per one gram of each sample after 1 to 7 days preservation was calculated based on the assumption that the increased amount measured to that of 0 day preservation was the amount of moisture absorbed by each sample.

[3] = Inhibition of formation of calcium phosphate precipitate (solubilized calcium); format: physicochemical; details: calcium chloride solution with saccharide mixed with phosphate solution pH 6.8, 37° C., three hours, supernatant, n=3
Experimental: When phosphate ion is added to a calcium chloride aqueous solution, calcium phosphate, an insoluble salt, is formed from calcium ion and phosphate ion and then precipitated. Effects of α-maltosyl α,α-trehalose and other saccharides on the phenomenon were investigated as follows. A calcium chloride aqueous solution was prepared by the steps of adding 3.68 grams of calcium chloride dihydrate to deionized water to dissolve therein and adding deionized water to the solution to give a total volume of 200 ml. α-Maltosyl α,α-trehalose, prepared by the method in Experiment 1, maltotetraose, and anhydrous crystalline sucrose were used as saccharides for the test. […]
Twenty-six grams, d.s.b., of either of the saccharides for the test were added to five milliliters of the above calcium chloride solution and dissolved by adding additional deionized water. […] The calcium concentration (the solubilized calcium concentration) of each supernatant was measured using “ZEEMAN 5100”, an atomic adsorption-photometer commercialized by Perkin-Elmar Japan Co. Ltd., Kanagawa, Japan. […]
The above procedure was carried out for individual each sample (three kinds of saccharides and control) for three times and the average value of the solubilized calcium concentration was calculated.

[4] = Experimental: The changes of solubility in water of metal ion compounds were examined under coexistence of α-maltosyl α,α-trehalose and metal ion compounds. α-Maltosyl α,α-trehalose prepared by the method in Experiment 1 was used for the tests. […] Solutions prepared by dissolving the same amount of metal ion compounds only were prepared as controls. After dissolving the contents completely, all the beakers were allowed to stand at room temperature (25° C.) for 24 hours. Successively, precipitation of crystals was judged by macroscopic observation. In the case of precipitating crystals, the formed crystals were collected and analyzed for components by the conventional method.

Structure (SMILES): O=C1O[C@H]([C@@H](O)CO)C(O)=C1O [14.8 mM AsA, L-ascorbic acid]
Degree of coloring (Abs. at 420 nm), preserved for 40 hrs ([1]; 40 hrs): 0.012
Degree of coloring (Abs. at 420 nm), preserved for 96 hrs ([1]; 96 hrs): 0.166

Structure (SMILES): O.O.[Ca+2].[Cl-].[Cl-] [CaCl2•2H2O, calcium chloride dihydrate]
Moisture content/g-sample, 1 day ([2]; 25° C., relative humidity 52.8%, 1 day): 0.319 g
Moisture content/g-sample, 2 days ([2]; 25° C., relative humidity 52.8%, 2 days): 0.359 g
Moisture content/g-sample, 3 days ([2]; 25° C., relative humidity 52.8%, 3 days): 0.405 g
Moisture content/g-sample, 7 days ([2]; 25° C., relative humidity 52.8%, 7 days): 0.430 g
Moisture content/g-sample, 0 day ([2]; before preservation, drying loss method): 0.245 g

Structure (SMILES): O.O.O.O.[Cl][Mn][Cl] [Manganese chloride, manganese chloride tetrahydrate]
Solubility in water in the presence of α-maltosyl α,α-trehalose [4]: remarkably improved

Next, values leading:

Concentration of solubilized calcium (average ± standard deviation) [3]: 6910 ± 830 ng/mL
Structure (SMILES): OC[C@H]1O[C@H](O[C@H]2[C@H](O)[C@@H](O)[C@@H](O[C@H]3[C@H](O)[C@@H](O)[C@@H](O[C@H]4[C@H](O)[C@@H](O)C(O)O[C@@H]4CO)O[C@@H]3CO)O[C@@H]2CO)[C@H](O)[C@@H](O)[C@@H]1O (stereo partly shown) [Maltotetraose, maltotetraose]

Precipitation of crystal, in the absence of α-maltosyl α,α-trehalose ([4]; 0.1 mole metal ion compound only in 30 g water, dissolved by heating, 25° C. for 24 hours, macroscopic observation): Precipitated
Structure (SMILES): O.O.O.O.O.O.[Cl-].[Cl-].[Sr+2] [Strontium chloride, Strontium chloride hexahydrate]
